These are literature values, as cited in patent publication US7879357B2 (priority 2003, dated 2011).

The conditions of this data set: skin of the retro-auricular region and the scrotum.

Turning to `C[C@]12CCC(=O)C=C1CC[C@@H]1[C@@H]2[C@@H](O)C[C@@]2(C)[C@H]1CC[C@]2(O)C(=O)CO` [hydrocortisone], the “uptake rate through the skin compared to the lower arm” value is reported as “up to 40 ×”.
